Data on 15 molecules can be found in patent publication US20140228377A1, “METHYLPIPERIDINE DERIVATIVE” (TAISHO PHARMACEUTICAL CO., LTD., priority 2011, published 2014).

The target in data set [1] is T1, orexin-2 receptor (hOX2R) (Homo sapiens, UniProt O43614).
T1 construct: expressed in transfected cells; host or cells: Chinese hamster ovary (CHO) cells
T1 sequence (O43614 1-444): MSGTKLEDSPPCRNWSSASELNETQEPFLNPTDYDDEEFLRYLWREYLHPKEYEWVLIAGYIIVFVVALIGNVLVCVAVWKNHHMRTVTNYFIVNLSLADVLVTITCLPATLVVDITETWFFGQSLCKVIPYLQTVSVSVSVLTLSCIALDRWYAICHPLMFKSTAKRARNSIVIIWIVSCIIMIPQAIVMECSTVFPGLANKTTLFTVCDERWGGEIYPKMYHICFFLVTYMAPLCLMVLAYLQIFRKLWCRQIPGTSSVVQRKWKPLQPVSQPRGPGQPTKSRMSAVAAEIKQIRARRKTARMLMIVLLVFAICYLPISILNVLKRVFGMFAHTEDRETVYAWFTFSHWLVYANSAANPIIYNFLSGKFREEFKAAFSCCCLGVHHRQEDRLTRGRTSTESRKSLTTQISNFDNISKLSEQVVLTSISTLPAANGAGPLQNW
Briefly: Orexin antagonistic activity assay (intracellular Ca2+, FDSS) in CHO cells expressing hOX2R. In kind it is cell-based. The following applies: CHO cells expressing hOX2R; ligand peptide 3 nM; Fluo-3 maximum fluorescence intensity; read-out: IC50 value OX2. Summed up:
(§1)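 Recombinant CHO cells, Fluo-3 AM loaded, were preincubated 30 min with compound, then stimulated with a modified orexin-A peptide (300 pM for hOX1R, 3 nM for hOX2R). Peak Ca2+ fluorescence read each second for 3 min; IC50 from concentration-response, normalised to ligand-only (100%) and no-ligand (0%) wells.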

For data set [2], the target named is T2, human orexin-1 receptor (hOX1R) (Homo sapiens, UniProt O43613).
T2 construct: expressed in transfected cells; host or cells: Chinese hamster ovary (CHO) cells
T2 sequence (O43613 1-425): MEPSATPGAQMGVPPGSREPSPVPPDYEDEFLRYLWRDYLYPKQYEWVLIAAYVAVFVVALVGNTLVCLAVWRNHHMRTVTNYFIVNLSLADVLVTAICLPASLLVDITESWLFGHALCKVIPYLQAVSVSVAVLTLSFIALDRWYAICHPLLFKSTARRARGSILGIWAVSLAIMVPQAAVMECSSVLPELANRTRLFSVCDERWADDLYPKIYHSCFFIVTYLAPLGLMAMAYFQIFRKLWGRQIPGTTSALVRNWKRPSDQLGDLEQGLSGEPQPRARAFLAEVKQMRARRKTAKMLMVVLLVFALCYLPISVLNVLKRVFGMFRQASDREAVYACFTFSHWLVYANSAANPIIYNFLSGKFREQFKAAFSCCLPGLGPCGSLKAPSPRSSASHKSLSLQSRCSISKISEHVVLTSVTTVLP
The experiment in a line: Orexin antagonistic activity assay (intracellular Ca2+, FDSS) in CHO cells expressing hOX1R. In kind it is cell-based. The following applies: CHO cells expressing hOX1R; ligand peptide 300 pM; Fluo-3 maximum fluorescence intensity; read-out: IC50 value OX1. Put shortly:
as §1

Data set [3] can be described thus: Metabolic stability test using human liver microsomes. In kind it is in vitro ADME. The following applies: human liver microsomes 0.25 mg protein/mL, test compound 1 μM, 37° C., 15 minutes, NADPH production system. As for the experimental part:
The stability test on a test compound was conducted according to the following method using human liver microsomes (Ms):
The test compound was incubated (37° C., 15 minutes) together with human liver microsome fraction (XenoTech LLC; H630B, lot. 0810472) in a 0.1 M phosphate buffer solution (pH 7.4) in the presence of a NADPH production system (0.16 mM NADP+, 2.5 mM MgCl2, and 1.5 mM glucose-6-phosphate). The final concentrations of the test compound and the liver Ms protein were set to 1 μM and 0.25 mg protein/mL, respectively. After the incubation, the reaction mixture was supplemented with a 2-fold volume of DMSO, stirred, and then centrifuged at 2150×g (4° C., 10 minutes). The obtained supernatant was analyzed using a liquid chromatography tandem mass spectrometry (LC-MS/MS) system. The lower limit of quantification was 0.1 μM.

A word on the IC50: it is the concentration at which inhibition is half-maximal.

Turning to `Cc1ccc(-c2ncccn2)c(C(=O)N2C[C@H](c3nc4cc(F)c(F)cc4o3)CC[C@H]2C)c1` [Example 51, [(2R,5R)-5-(5,6-Difluoro-1,3-benzoxazol-2-yl)-2-methylpiperidin-1-yl][5-methyl-2-(pyrimidin-2-yl)phenyl]methanone], the IC50 turned out to be 7.3 nM in data set [1] and 13.5 nM in data set [2].

On to `C[C@@H]1CC[C@@H](c2nc3cc(Cl)ccc3o2)CN1C(=O)c1cc(Cl)ccc1-c1ncccn1` [Example 13, [(2R,5R)-5-(5-Chloro-1,3-benzoxazol-2-yl)-2-methylpiperidin-1-yl][5-chloro-2-(pyrimidin-2-yl)phenyl]methanone], for which the IC50 in data set [1] was 13 nM; in data set [2], 4.4 nM.

Regarding `Cc1ccc(-n2nccn2)c(C(=O)N2C[C@H](c3nc4cc(Cl)ccc4o3)CC[C@H]2C)n1` [Example 1, [(2R,5R)-5-(5-Chloro-1,3-benzoxazol-2-yl)-2-methylpiperidin-1-yl][6-methyl-3-(2H-1,2,3-triazol-2-yl)pyridin-2-yl]methanone], the IC50 in data set [1] is 12.2 nM; in data set [2], 11 nM. In addition, in data set [3], the rate of metabolism came out at 27.8%.

As for `C[C@@H]1CC[C@@H](c2nc3cc(F)ccc3o2)CN1C(=O)c1cc(F)ccc1-c1ncccn1` [Example 32, [(2R,5R)-5-(5-Fluoro-1,3-benzoxazol-2-yl)-2-methylpiperidin-1-yl][5-fluoro-2-(pyrimidin-2-yl)phenyl]methanone], the IC50 in data set [1] stood at 8.2 nM; in data set [2] it was 24.9 nM.

`C[C@@H]1CC[C@@H](c2nc3cc(Cl)cnc3o2)CN1C(=O)c1ccc(F)cc1-n1nccn1` [Example 72, [(2R,5R)-5-(6-Chloro[1,3]oxazolo[5,4-b]pyridin-2-yl)-2-methylpiperidin-1-yl][4-fluoro-2-(2H-1,2,3-triazol-2-yl)phenyl]methanone]: the values for the concentration for half-maximal inhibition (IC50) in data set [1] and in data set [2] were 80.5 nM and 412 nM, respectively.

For the molecule `C[C@@H]1CC[C@@H](c2nc3cc(Cl)ccc3o2)CN1C(=O)c1ccc(F)cc1-n1nccn1` [Example 14, [(2R,5R)-5-(5-Chloro-1,3-benzoxazol-2-yl)-2-methylpiperidin-1-yl][4-fluoro-2-(2H-1,2,3-triazol-2-yl)phenyl]methanone], the results for the IC50 in data set [1] and in data set [2] were 8.8 nM and 41.6 nM, respectively.

Take `C[C@@H]1CC[C@@H](c2nc3cc(F)ccc3o2)CN1C(=O)c1cc(Cl)ccc1-n1nccn1` [Example 30, [5-Chloro-2-(2H-1,2,3-triazol-2-yl)phenyl][(2R,5R)-5-(5-fluoro-1,3-benzoxazol-2-yl)-2-methylpiperidin-1-yl]methanone]: the IC50 in data set [1] stood at 3.7 nM; in data set [2] it was 74.4 nM.

As to `C[C@@H]1CC[C@@H](c2nc3cc(Cl)ccc3o2)CN1C(=O)c1cccc(F)c1-c1ncccn1` [Example 18, [(2R,5R)-5-(5-Chloro-1,3-benzoxazol-2-yl)-2-methylpiperidin-1-yl][3-fluoro-2-(pyrimidin-2-yl)phenyl]methanone], the results for the IC50 in data set [1] and in data set [2] were 59.5 nM and 301 nM, respectively.

On to `Cc1ccc(-n2nccn2)c(C(=O)N2C[C@H](c3nc4cc(F)c(F)cc4o3)CC[C@H]2C)c1` [Example 50, [(2R,5R)-5-(5,6-Difluoro-1,3-benzoxazol-2-yl)-2-methylpiperidin-1-yl][5-methyl-2-(2H-1,2,3-triazol-2-yl)phenyl]methanone], for which the results for the IC50 in data set [1] and in data set [2] were 8.6 nM and 9.8 nM, respectively.

As for `Cc1ccc(-c2ncccn2)c(C(=O)N2C[C@H](c3nc4ccc(F)c(F)c4o3)CC[C@H]2C)c1` [Example 59, [(2R,5R)-5-(6,7-Difluoro-1,3-benzoxazol-2-yl)-2-methylpiperidin-1-yl][5-methyl-2-(pyrimidin-2-yl)phenyl]methanone], the IC50 in data set [1] was determined as 9.2 nM; in data set [2], 4.4 nM.

Consider `Cc1ccc(-n2nccn2)c(C(=O)N2C[C@H](c3nc4cc(F)ccc4o3)CC[C@H]2C)n1` (single isomer, unassigned) [Example 11, [(2R*,5R*)-5-(5-Fluoro-1,3-benzoxazol-2-yl)-2-methylpiperidin-1-yl][6-methyl-3-(2H-1,2,3-triazol-2-yl)pyridin-2-yl]methanone], for which the IC50 in data set [1] stood at 43.7 nM; in data set [2] it was 42.1 nM.

As for `Cc1ccc(-n2nccn2)c(C(=O)N2C[C@H](c3nc4cc(C(F)(F)F)ccc4o3)CC[C@H]2C)c1` [Example 36, [5-Methyl-2-(2H-1,2,3-triazol-2-yl)phenyl][(2R,5R)-2-methyl-5-[5-(trifluoromethyl)-1,3-benzoxazol-2-yl]piperidin-1-yl]methanone], the IC50 in data set [1] was found to be 2.5 nM; in data set [2] it was 8.9 nM.

Consider `C[C@@H]1CC[C@@H](c2nc3c(Cl)cccc3o2)CN1C(=O)c1cc(F)ccc1-c1ncccn1` [Example 70, [(2R,5R)-5-(4-Chloro-1,3-benzoxazol-2-yl)-2-methylpiperidin-1-yl][5-fluoro-2-(pyrimidin-2-yl)phenyl]methanone], for which the IC50 in data set [1] turned out to be 16.2 nM; in data set [2], 12.3 nM.

With `Cc1ccc(-n2nccn2)c(C(=O)N2C[C@H](c3nc4ccc(F)cc4o3)CC[C@H]2C)n1` (single isomer, unassigned) [Example 12, [(2R*,5R*)-5-(6-Fluoro-1,3-benzoxazol-2-yl)-2-methylpiperidin-1-yl][6-methyl-3-(2H-1,2,3-triazol-2-yl)pyridin-2-yl]methanone], the IC50 in data set [1] was 105 nM; in data set [2], 111 nM.

On to `Cc1ccc(-n2nccn2)c(C(=O)N2C[C@H](c3nc4cc(C(F)(F)F)ccc4o3)CC[C@H]2C)n1` [Example 40, [6-Methyl-3-(2H-1,2,3-triazol-2-yl)pyridin-2-yl]{(2R,5R)-2-methyl-5-[5-(trifluoromethyl)-1,3-benzoxazol-2-yl]piperidin-1-yl}methanone], for which the IC50 in data set [1] turned out to be 100 nM; in data set [2], 157 nM.
